This note sets out measurements from ChEMBL document CHEMBL2074418, “Limited oral bioavailability and active epithelial excretion of paclitaxel (Taxol) caused by P-glycoprotein in the intestine” (Proc Natl Acad Sci U S A, 1997).

Series [1] deals with T1, ATP-dependent translocase ABCB1 (Mus musculus, UniProt P21447). Description: TP_TRANSPORTER: increase in bioavailability in mdr1a(-/-) mouse. The class given is functional, organism-based. To be noted: in vivo.
The target in series [2] is T1, ATP-dependent translocase ABCB1. Description: TP_TRANSPORTER: increase in plasma concentration in mdr1a(-/-) mouse. The format is functional, organism-based. To be noted: in vivo.

T1 sequence (P21447 whole entry): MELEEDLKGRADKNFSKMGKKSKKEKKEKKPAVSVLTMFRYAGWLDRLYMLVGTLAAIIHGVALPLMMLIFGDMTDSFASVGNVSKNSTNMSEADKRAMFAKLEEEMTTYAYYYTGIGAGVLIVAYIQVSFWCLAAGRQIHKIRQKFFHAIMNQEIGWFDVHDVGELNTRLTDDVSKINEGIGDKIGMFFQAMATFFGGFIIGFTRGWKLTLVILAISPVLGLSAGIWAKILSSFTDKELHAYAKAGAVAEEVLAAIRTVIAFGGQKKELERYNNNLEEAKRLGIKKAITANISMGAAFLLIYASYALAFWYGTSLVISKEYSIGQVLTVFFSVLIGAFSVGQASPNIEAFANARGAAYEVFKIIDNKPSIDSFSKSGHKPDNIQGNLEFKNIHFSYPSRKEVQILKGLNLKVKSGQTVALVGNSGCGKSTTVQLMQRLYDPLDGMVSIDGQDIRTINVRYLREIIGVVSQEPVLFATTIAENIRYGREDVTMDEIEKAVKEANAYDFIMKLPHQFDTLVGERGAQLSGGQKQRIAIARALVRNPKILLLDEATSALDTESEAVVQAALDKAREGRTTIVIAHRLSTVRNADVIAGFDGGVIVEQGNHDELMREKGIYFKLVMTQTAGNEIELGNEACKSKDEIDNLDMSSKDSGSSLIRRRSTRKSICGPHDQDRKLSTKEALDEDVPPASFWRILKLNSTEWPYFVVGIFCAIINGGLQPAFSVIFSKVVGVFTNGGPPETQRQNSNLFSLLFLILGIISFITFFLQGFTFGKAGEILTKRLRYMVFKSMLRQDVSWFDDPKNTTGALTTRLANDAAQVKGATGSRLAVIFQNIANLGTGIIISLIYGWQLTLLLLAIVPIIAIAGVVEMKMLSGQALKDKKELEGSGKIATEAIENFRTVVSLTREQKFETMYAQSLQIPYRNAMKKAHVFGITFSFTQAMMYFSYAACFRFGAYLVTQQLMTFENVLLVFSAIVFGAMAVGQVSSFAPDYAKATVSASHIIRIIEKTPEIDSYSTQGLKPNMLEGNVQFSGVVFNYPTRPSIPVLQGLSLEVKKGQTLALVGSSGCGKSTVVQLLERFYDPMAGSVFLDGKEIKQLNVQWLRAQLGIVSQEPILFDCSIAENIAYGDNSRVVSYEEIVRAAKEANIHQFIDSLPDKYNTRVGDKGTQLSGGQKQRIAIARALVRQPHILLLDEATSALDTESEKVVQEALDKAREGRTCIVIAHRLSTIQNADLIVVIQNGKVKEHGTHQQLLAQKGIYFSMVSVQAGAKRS

For the compound `CC(=O)O[C@H]1C(=O)[C@@]2(C)[C@H]([C@H](OC(=O)c3ccccc3)[C@]3(O)C[C@H](OC(=O)[C@H](O)[C@@H](NC(=O)c4ccccc4)c4ccccc4)C(C)=C1C3(C)C)[C@]1(OC(C)=O)CO[C@@H]1C[C@@H]2O` [PACLITAXEL], the Activity result in series [1] and in series [2] was “substrate [+]” in each case.
